Measured values: patent US20240158418A1 (C4 Therapeutics, Inc., priority 2021, published 2024)

Molecular target: T1, EGFR L858R-T790M (Homo sapiens, UniProt P00533, L858R/T790M)
T1 construct: NCI-H1975 (harboring EGFR heterozygous L858R-T790M mutations); host or cells: NCI-H1975
Experiment: EGFR degradation, Total EGFR (L858R-specific) HTRF, NCI-H1975
Format: cell-based
Conditions: Table 9A; NCI-H1975 cells, 6 hours, Total EGFR HTRF; read-out: H1975 EGFR DC50
Method in brief: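 FRET signal from HTRF kits measured phospho-EGFR at pY1068 or total EGFR after 6 h treatment at 37 °C. Compounds ran as 11-point half-log dilutions from 10 μM in duplicate, in cells in phenol red-free RPMI with 10% FBS. Concentrations giving 50% inhibition or degradation were reported as IC50 or DC50.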

T1 sequence (P00533 25-1210 T790M/L858R): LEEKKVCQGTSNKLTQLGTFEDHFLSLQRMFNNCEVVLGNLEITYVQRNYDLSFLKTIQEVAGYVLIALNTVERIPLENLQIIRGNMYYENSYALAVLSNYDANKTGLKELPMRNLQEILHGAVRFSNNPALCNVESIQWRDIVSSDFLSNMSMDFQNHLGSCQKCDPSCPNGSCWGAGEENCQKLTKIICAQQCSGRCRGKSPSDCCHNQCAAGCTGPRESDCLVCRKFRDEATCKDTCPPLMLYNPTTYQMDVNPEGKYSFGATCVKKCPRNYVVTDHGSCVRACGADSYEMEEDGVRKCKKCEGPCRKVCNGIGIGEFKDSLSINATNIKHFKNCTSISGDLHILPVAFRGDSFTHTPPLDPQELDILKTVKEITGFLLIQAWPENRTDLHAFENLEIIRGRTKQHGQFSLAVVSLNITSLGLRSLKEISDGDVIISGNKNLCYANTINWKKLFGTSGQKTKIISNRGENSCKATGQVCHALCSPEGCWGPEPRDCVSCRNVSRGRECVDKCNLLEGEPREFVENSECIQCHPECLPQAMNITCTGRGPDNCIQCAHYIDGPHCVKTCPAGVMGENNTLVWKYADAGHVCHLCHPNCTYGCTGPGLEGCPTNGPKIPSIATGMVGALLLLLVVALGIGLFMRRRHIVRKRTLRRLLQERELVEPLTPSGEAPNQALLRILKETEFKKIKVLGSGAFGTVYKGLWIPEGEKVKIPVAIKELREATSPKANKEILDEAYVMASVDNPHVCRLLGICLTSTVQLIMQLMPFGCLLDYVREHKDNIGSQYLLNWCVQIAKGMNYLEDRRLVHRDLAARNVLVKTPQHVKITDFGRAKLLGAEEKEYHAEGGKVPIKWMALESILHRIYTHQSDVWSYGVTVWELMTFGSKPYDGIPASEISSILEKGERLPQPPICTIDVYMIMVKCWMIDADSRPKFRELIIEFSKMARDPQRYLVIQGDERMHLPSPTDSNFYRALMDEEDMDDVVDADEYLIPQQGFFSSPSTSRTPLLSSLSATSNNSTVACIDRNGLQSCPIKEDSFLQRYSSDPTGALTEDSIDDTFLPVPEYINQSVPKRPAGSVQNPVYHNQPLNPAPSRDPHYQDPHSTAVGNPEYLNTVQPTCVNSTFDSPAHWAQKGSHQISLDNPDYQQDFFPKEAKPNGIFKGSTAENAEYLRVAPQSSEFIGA

Structure (SMILES)	DC50 [nM]
O=C1CC[C@H](Nc2ccc(C3CCN(CC(=O)N4CC[C@H](Oc5ccc(-c6cc(F)c7c(c6)C(=O)N(C(C(=O)Nc6nccs6)c6ncn8c6CCC8)C7)cc5)C4)CC3)cc2)C(=O)N1 (stereo partly drawn) [Compound 42, 2-(6,7-dihydro-5H-pyrrolo[1,2-c]imidazol-1-yl)-2-[6-[4-[(3S)-1-[2-[4-[4-[[(3S)-2,6-dioxo-3-piperidyl]amino]phenyl]-1-piperidyl]acetyl]pyrrolidin-3-yl]oxyphenyl]-4-fluoro-1-oxo-isoindolin-2-yl]-N-thiazol-2-yl-acetamide]	< 50
O=C1CCC(Oc2ccc(N3CCN(CC(=O)N4CCC(NC(=O)c5ccc(C#Cc6cc(F)c7c(c6)C(=O)N(C(C(=O)Nc6nccs6)c6ncn8c6CCC8)C7)cn5)CC4)CC3)cc2)C(=O)N1 (stereo not shown) [Compound 51, 5-[2-[2-[1-(6,7-dihydro-5H-pyrrolo[1,2-c]imidazol-1-yl)-2-oxo-2-(thiazol-2-ylamino)ethyl]-7-fluoro-3-oxo-isoindolin-5-yl]ethynyl]-N-[1-[2-[4-[4-[(2,6-dioxo-3-piperidyl)oxy]phenyl]piperazin-1-yl]acetyl]-4-piperidyl]pyridine-2-carboxamide]	< 50
Cn1nc(N2CCC(=O)NC2=O)c2ccc(C3CCN(CC(=O)N4CC5(C4)CN(c4ccc(-c6cc(F)c7c(c6)C(=O)N(C(C(=O)Nc6ccccn6)c6ncn8c6CCC8)C7)cc4)C5)CC3)cc21 (stereo not shown) [Compound 54, 2-(6,7-dihydro-5H-pyrrolo[1,2-c]imidazol-1-yl)-2-[6-[4-[2-[2-[4-[3-(2,4-dioxohexahydropyrimidin-1-yl)-1-methyl-indazol-6-yl]-1-piperidyl]acetyl]-2,6-diazaspiro[3.3]heptan-6-yl]phenyl]-4-fluoro-1-oxo-isoindolin-2-yl]-N-(2-pyridyl)acetamide]	< 50
O=C1CCC(Nc2ccc(C3CCN(CC(=O)N4CCN(c5ccc(-c6cc(F)c7cn(C(C(=O)Nc8nccs8)c8ncn9c8CCC9)nc7c6)cn5)CC4)CC3)c(F)c2)C(=O)N1 (stereo not shown) [Compound 64, 2-(6,7-dihydro-5H-pyrrolo[1,2-c]imidazol-1-yl)-2-[6-[6-[4-[2-[4-[4-[(2,6-dioxo-3-piperidyl)amino]-2-fluoro-phenyl]-1-piperidyl]acetyl]piperazin-1-yl]-3-pyridyl]-4-fluoro-indazol-2-yl]-N-thiazol-2-yl-acetamide]	50 to 150
O=C1CCC(Nc2ccc(C3CCN(CC(=O)N4CCN(c5ccc(-c6cc(F)c7cn(C(C(=O)Nc8nccs8)c8ncn9c8CCC9)nc7c6)cn5)CC4)CC3)cc2)C(=O)N1 (stereo not shown) [Compound 65, 2-(6,7-dihydro-5H-pyrrolo[1,2-c]imidazol-1-yl)-2-[6-[6-[4-[2-[4-[4-[(2,6-dioxo-3-piperidyl)amino]phenyl]-1-piperidyl]acetyl]piperazin-1-yl]-3-pyridyl]-4-fluoro-indazol-2-yl]-N-thiazol-2-yl-acetamide]	< 50

Same assay, conditions: Table 9B; NCI-H1975 cells, 6 hours, Total EGFR HTRF; read-out: H1975 EGFR DC50

Structure (SMILES)	DC50 [nM]
O=C1CCC(Nc2ccc(N3CCC(O)(CC(=O)N4CC5(C4)CN(c4ccc(-c6ccc7cn(C(C(=O)Nc8nccs8)c8ncn9c8CCC9)nc7c6F)cn4)C5)CC3)cc2F)C(=O)N1 (stereo not shown) [Compound 71, 2-(6,7-dihydro-5H-pyrrolo[1,2-c]imidazol-1-yl)-2-[6-[6-[2-[2-[1-[4-[(2,6-dioxo-3-piperidyl)amino]-3-fluoro-phenyl]-4-hydroxy-4-piperidyl]acetyl]-2,6-diazaspiro[3.3]heptan-6-yl]-3-pyridyl]-7-fluoro-indazol-2-yl]-N-thiazol-2-yl-acetamide]	< 50
O=C1CCC(Nc2ccc(N3CCC(O)(CC(=O)N4CC5(C4)CN(c4ccc(-c6ccc7cn(C(C(=O)Nc8nccs8)c8ncn9c8CCC9)nc7c6F)cn4)C5)CC3)c(F)c2)C(=O)N1 (stereo not shown) [Compound 74, 2-(6,7-dihydro-5H-pyrrolo[1,2-c]imidazol-1-yl)-2-[6-[6-[2-[2-[1-[4-[(2,6-dioxo-3-piperidyl)amino]-2-fluoro-phenyl]-4-hydroxy-4-piperidyl]acetyl]-2,6-diazaspiro[3.3]heptan-6-yl]-3-pyridyl]-7-fluoro-indazol-2-yl]-N-thiazol-2-yl-acetamide]	< 50
Cn1nc(N2CCC(=O)NC2=O)c2ccc(C3CCN(CC(=O)N4C[C@H]5C[C@@H]4CN5c4ccc(-c5cc(F)c6c(c5)C(=O)N(C(C(=O)Nc5nccs5)c5ncn7c5CCC7)C6)cc4)CC3)cc21 (stereo partly drawn) [Compound 82, 2-(6,7-dihydro-5H-pyrrolo[1,2-c]imidazol-1-yl)-2-(6-(4-((1R,4R)-5-(2-(4-(3-(2,4-dioxotetrahydropyrimidin-1(2H)-yl)-1-methyl-1H-indazol-6-yl)piperidin-1-yl)acetyl)-2,5-diazabicyclo[2.2.1]heptan-2-yl)phenyl)-4-fluoro-1-oxoisoindolin-2-yl)-N-(thiazol-2-yl)acetamide]	> 150
O=C1CCC(Nc2ccc(C3CCN(C(=O)CC4CCN(c5ccc(-c6cc(F)c7c(c6)C(=O)N(C(C(=O)Nc6nccs6)c6ncn8c6CCC8)C7)cc5)CC4)CC3)c(F)c2)C(=O)N1 (stereo not shown) [Compound 86, 2-(6,7-dihydro-5H-pyrrolo[1,2-c]imidazol-1-yl)-2-[6-[4-[4-[2-[4-[4-[(2,6-dioxo-3-piperidyl)amino]-2-fluoro-phenyl]-1-piperidyl]-2-oxo-ethyl]-1-piperidyl]phenyl]-4-fluoro-1-oxo-isoindolin-2-yl]-N-thiazol-2-yl-acetamide]	50 to 150

Now from value to molecule:

DC50 [nM]	Structure (SMILES)
< 50	Cn1nc(N2CCC(=O)NC2=O)c2ccc(C3CCN(CC(=O)N4CCN(c5ccc(-c6cc(F)c7cn(C(C(=O)Nc8nccs8)c8ncn9c8CCC9)nc7c6)cn5)CC4)CC3(F)F)cc21 (stereo not shown) [Compound 72, 2-(6,7-dihydro-5H-pyrrolo[1,2-c]imidazol-1-yl)-2-(6-(6-(4-(2-(4-(3-(2,4-dioxotetrahydropyrimidin-1(2H)-yl)-1-methyl-1H-indazol-6-yl)-3,3-difluoropiperidin-1-yl)acetyl)piperazin-1-yl)pyridin-3-yl)-4-fluoro-2H-indazol-2-yl)-N-(thiazol-2-yl)acetamide]
< 50	O=C1CC[C@H](Nc2ccc(N3CCC(O)(CC(=O)N4CC5(C4)CN(c4ccc(-c6cc(F)c7cn(C(C(=O)Nc8nccs8)c8ncn9c8CCC9)nc7c6)cn4)C5)CC3)c(F)c2)C(=O)N1 (stereo partly drawn) [Compound 75, 2-(6,7-dihydro-5H-pyrrolo[1,2-c]imidazol-1-yl)-2-[6-[6-[2-[2-[1-[4-[[(3S)-2,6-dioxo-3-piperidyl]amino]-2-fluoro-phenyl]-4-hydroxy-4-piperidyl]acetyl]-2,6-diazaspiro[3.3]heptan-6-yl]-3-pyridyl]-4-fluoro-indazol-2-yl]-N-thiazol-2-yl-acetamide]
< 50	Cn1nc(N2CCC(=O)NC2=O)c2ccc([C@H]3CCN(CC(=O)N4CC5(C4)CN(c4ccc(-c6cc(F)c7cn(C(C(=O)Nc8nccs8)c8ncn9c8CCC9)nc7c6)cc4)C5)CC3(F)F)cc21 (stereo partly drawn) [Compound 76, 2-(6,7-dihydro-5H-pyrrolo[1,2-c]imidazol-1-yl)-2-(6-(4-(6-(2-((R)-4-(3-(2,4-dioxotetrahydropyrimidin-1(2H)-yl)-1-methyl-1H-indazol-6-yl)-3,3-difluoropiperidin-1-yl)acetyl)-2,6-diazaspiro[3.3]heptan-2-yl)phenyl)-4-fluoro-2H-indazol-2-yl)-N-(thiazol-2-yl)acetamide]
< 50	O=C1CC[C@H](Nc2ccc(N3CCC(O)(CC(=O)N4CC5(C4)CN(c4ccc(-c6cc(F)c7cn(C(C(=O)Nc8nccs8)c8ncn9c8CCC9)nc7c6)cc4)C5)CC3)c(F)c2)C(=O)N1 (stereo partly drawn) [Compound 77, 2-(6,7-dihydro-5H-pyrrolo[1,2-c]imidazol-1-yl)-2-[6-[4-[2-[2-[1-[4-[[(3S)-2,6-dioxo-3-piperidyl]amino]-2-fluoro-phenyl]-4-hydroxy-4-piperidyl]acetyl]-2,6-diazaspiro[3.3]heptan-6-yl]phenyl]-4-fluoro-indazol-2-yl]-N-thiazol-2-yl-acetamide]
< 50	O=C1CC[C@H](Nc2ccc(N3CCC(O)(CC(=O)N4CC5(C4)CN(c4ccc(-c6ccc7cn(C(C(=O)Nc8nccs8)c8ncn9c8CCC9)nc7c6F)cc4)C5)CC3)c(F)c2)C(=O)N1 (stereo partly drawn) [Compound 78, 2-(6,7-dihydro-5H-pyrrolo[1,2-c]imidazol-1-yl)-2-(6-(4-(6-(2-(1-(4-(((S)-2,6-dioxopiperidin-3-yl)amino)-2-fluorophenyl)-4-hydroxypiperidin-4-yl)acetyl)-2,6-diazaspiro[3.3]heptan-2-yl)phenyl)-7-fluoro-2H-indazol-2-yl)-N-(thiazol-2-yl)acetamide]
< 50	O=C1CC[C@H](Nc2ccc(N3CCC(O)(CC(=O)N4CCC5(CC4)CN(c4ccc(-c6cc(F)c7cn(C(C(=O)Nc8nccs8)c8ncn9c8CCC9)nc7c6)cc4)C5)CC3)c(F)c2)C(=O)N1 (stereo partly drawn) [Compound 79, 2-(6,7-dihydro-5H-pyrrolo[1,2-c]imidazol-1-yl)-2-(6-(4-(7-(2-(1-(4-(((S)-2,6-dioxopiperidin-3-yl)amino)-2-fluorophenyl)-4-hydroxypiperidin-4-yl)acetyl)-2,7-diazaspiro[3.5]nonan-2-yl)phenyl)-4-fluoro-2H-indazol-2-yl)-N-(thiazol-2-yl)acetamide]
50 to 150	O=C1CCC(Nc2ccc(-c3ccc(CC(=O)N4CCC(Oc5ccc(-c6cc(F)c7c(c6)C(=O)N(C(C(=O)Nc6nccs6)c6ncn8c6CCC8)C7)cc5)CC4)cc3)cc2)C(=O)N1 (stereo not shown) [Compound 81, 2-(6,7-dihydro-5H-pyrrolo[1,2-c]imidazol-1-yl)-2-(6-(4-((1-(2-(4′-((2,6-dioxopiperidin-3-yl)amino)-[1,1′-biphenyl]-4-yl)acetyl)piperidin-4-yl)oxy)phenyl)-4-fluoro-1-oxoisoindolin-2-yl)-N-(thiazol-2-yl)acetamide]
